Test results published in US11013690B2, “Esterification/saponification-based method for liposomal encapsulation of hydrophilic glucuronides” (priority 2016, dated 2021).

Tests used:
[1] = Octanol-to-water partitioning assay; format: physicochemical; conditions: 1-octanol / citric acid pH 5, room temperature
Procedure: FIG. 4 illustrates the octanol to water distribution of glucuronides and glucuronide-mE. Glucuronides and glucuronide-mE were incubated overnight in immiscible aqueous and organic phases (citric acid pH 5 and 1-octanol) under gentle shaking at room temperature. Samples from each phase were analyzed to characterize the distribution of the compounds. n=3-5
FIG. 5 illustrates the Log P of glucuronides and glucuronide-mE compounds in each phase of 1-octanol and citric acid pH 5 following the formula: log Poctanol/water=log ([solute]octanol/[solute]water). n=3-5. Error bars, SD
9-aminocamptothecin glucuronide (9AC-G), 5,6-dihydro-4H-benzo[de]quinoline-camptothecin-β-D-glucuronide (BQC-G) and 4-methylumbelliferyl-β-D-glucuronide (4MU-G) can be incubated in methanol in the presence of a strong acid (sulfuric acid) as a catalyzer (FIG. 2).
Distribution of the different compounds were measured by dilution in a 1:1 volume of octanol and 100 mM citric acid buffer at pH 5 (FIG. 4). The solutions were gently stirred for 24 hours at room temperature, spun down at 2,500×g and glucuronides or glucuronide-mE in each phase was quantified by HPLC and the partition coefficients were calculated as log Poctanol/water=log ([solute]octanol/[solute]water) ([…]).

[2] = pH stability of 9AC-GmE (HPLC); format: physicochemical
Procedure: FIG. 6 illustrates the stability of 9-aminocamptothecin glucuronide methylester (9AC-GmE) at acidic pH. 9AC-GmE stability was monitored over time at 75° C., at pH 5. Quantification was done by HPLC at excitation and emission of 370 and 460 nm, respectively. (Abbreviations: 9AC, 9-aminocamptothecin; 9AC-G, 9-aminocamptothecin glucuronide; 9AC-GmE, methylester form of 9AC-G). n=3. Error bars, SD.
FIG. 7 illustrates the conversion of 9-aminocamptothecin glucuronide methylester (9AC-GmE) to 9-aminocamptothecin glucuronide (9AC-G) at basic pH. 9AC-GmE conversion to 9AC-G was monitored over time at 75° C., at pH 8.5. Quantification was done by HPLC at excitation and emission of 370 and 460 nm, respectively. n=3. Error bars, SD.
The behavior of 9AC-GmE was investigated at different pH and temperatures.

[3] = Pharmacokinetics of free vs liposomal 9AC-G in mice; format: in vivo, NOD/SCID mice; conditions: 25 mg/kg intravenously, 9AC-G in serum by HPLC
Procedure: FIG. 39 illustrates the pharmacokinetics in mice of free 9AC-G compared to liposomal 9AC-G. A dose of 25 mg/kg of either free 9AC-G or liposomal 9AC-G was injected intravenously by the tail of NOD/SCID mice. Blood samples were collected at different times and the concentration of 9AC-G was determined by HPLC. n=3, Error bars, SD.
This example relates to a test of whether the liposomal formulation of 9AC-G could display prolonged pharmacokinetics when compared to free 9AC-G. Free and liposomal 9AC-G were delivered intravenously at 25 mg/kg to 12 to 16 weeks old female mice. The total serum concentrations of 9AC-G were monitored by collecting blood samples in which the plasma was isolated from the red blood cells by centrifugation. The serum proteins were precipitated in acetonitrile:methanol:0.2 M trichloroacetic acid (2:2:1, vol:vol mixture). Samples were centrifuged to eliminate precipitated proteins and diluted in buffer containing 1% triton X-100 to lyse the liposomes and analyze 9AC-G quantities by HPLC.

MDA-MB-468 tumors = test: In-vivo anti-tumor activity, MDA-MB-468 subcutaneous tumors; design: species or system NOD/SCID mice; conditions: i.v. weekly x4, free 9AC 2 mg/kg, free 9AC-G 10 mg/kg; for mice survival: 9AC-G liposomes 10 mg/kg
Excerpt: FIG. 41 illustrates the in-vivo anti-tumor activity of liposomal 9AC-G. NOD/SCID mice were inoculated subcutaneously with 10^7 MDA-MB-468 cells. When tumors reached 75 to 100 mm^3 the treatment started at one injection per week for a total of 4 treatments. Figure represents the tumor volume evolution. n=7, Error bars: SD. Differences in tumor sizes between groups were examined for statistical significance using one-way ANOVA followed by Dunnettt's multiple comparisons. Stars indicate significance; n.s=non-significant and p<0.0001 (***)
FIG. 42 illustrates the mice survival after treatment with 9AC, 9AC-G or 9AC-G liposomes. n=7, Error bars, SD
FIG. 44 illustrates the tumor growth of MDA-MB-468 human breast cancer cells (10^7 cells in 100 μL PBS) injected subcutaneously in twelve to sixteen-week old female NOD/SCID immunodeficient mice. When tumors reached sizes from 75 mm^3 to 100 mm^3, groups of 7 mice were treated at weekly intervals for four times with intravenous injections of 9AC-G (10 mg/kg) or doxorubicin liposomes (Doxisome®, 1 mg/kg). n=7, Error bars, SD. Differences in tumor sizes between groups were examined for statistical significance using one-way ANOVA followed by Dunnettt's multiple comparisons. Stars indicate significance; p<0.001 (**) and p<0.0001 (***)
Next, in an in-vive model of breast cancer in NOD/SCID mice, 10^7 MDA-MD468 cells were inoculated subcutaneously per mouse. The treatment was started when the tumors reached an average size of 75 to 100 mm^3. Mice were intravenously injected with 9AC-G liposomes at 10 mg/kg, free parental 9AC (2 mg/kg), or free 9AC-G (10 mg/kg). […] Appreciably, low toxicity was observed and the tumors were undetectable when treated with 9AC-G liposomes after 4 treatments for 6 over 7 mice, as shown in FIG. 41. […] We observed that the amount of activated parental drug 9AC was over 30 folds higher in the tumor than in the blood 24 hours after injection of 9AC-G liposomes (FIG. 43). This phenomenon is likely due to the enhanced permeability and retention effect (EPR) by which nanoparticles accumulate and are retained in tumor through leaky blood tumor vasculature.

[4] = test system: HCC36 human hepatocellular carcinoma cells; test: Effect of human serum albumin on toxicity to HCC36 cells; format: cell-based; conditions: HCC36, human serum albumin 40 mg/mL, 24 hours, 3H-thymidine incorporation
Procedure: FIG. 35 illustrates the neutralizing effect of human serum albumin on free 9AC-G. Human hepatocellular carcinoma cells (HCC36) were exposed to free 9AC-G with or without human serum albumin (40 mg/mL) for 24 hours. Cell proliferation was observed by ^3H-thymidine incorporation assay. Human serum albumin inhibits the potency of free 9AC-G that is not loaded into liposomes. n=3, Error bars, SD.
FIG. 36 illustrates the inability of human serum albumin to neutralize 9AC-G after liposomal loading. Human hepatocellular carcinoma cells (HCC36) were exposed to liposomal 9AC-G with or without human serum albumin (40 mg/mL) for 24 hours. Cell proliferation was observed by ^3H-thymidine incorporation assay.
Anticancer activity of liposomes loaded with glucuronide-mE to encapsulate glucuronide can be assessed in-vitro or in-vivo. In an in-vitro assay, cancer cell lines can be seeded in wells or plates and various concentrations of liposomal glucuronide can be applied to the cells for a period of time, such as 24 hours, and cell killing can be assayed. Tritiated thymidine can be used to assay cell proliferation. […] Liposomal doxorubicin and liposomal 9AC-G toxicities were assessed with 3 human colon cancer cells (LS174T, HT29, and HCT16), 3 human lung cancer cells (CL1-5, NCI-H2170, and SK-MES-1) and 1 human breast cancer cells (MDA-MB-468). […]

human beta-glucuronidase = molecular target: T1, human beta-glucuronidase (Homo sapiens, UniProt P08236); test: Regeneration of parental drug by beta-glucuronidase at pH 4.5; format: biochemical; conditions: pH 4.5 to mimic lysosomes
T1 sequence (P08236 23-651): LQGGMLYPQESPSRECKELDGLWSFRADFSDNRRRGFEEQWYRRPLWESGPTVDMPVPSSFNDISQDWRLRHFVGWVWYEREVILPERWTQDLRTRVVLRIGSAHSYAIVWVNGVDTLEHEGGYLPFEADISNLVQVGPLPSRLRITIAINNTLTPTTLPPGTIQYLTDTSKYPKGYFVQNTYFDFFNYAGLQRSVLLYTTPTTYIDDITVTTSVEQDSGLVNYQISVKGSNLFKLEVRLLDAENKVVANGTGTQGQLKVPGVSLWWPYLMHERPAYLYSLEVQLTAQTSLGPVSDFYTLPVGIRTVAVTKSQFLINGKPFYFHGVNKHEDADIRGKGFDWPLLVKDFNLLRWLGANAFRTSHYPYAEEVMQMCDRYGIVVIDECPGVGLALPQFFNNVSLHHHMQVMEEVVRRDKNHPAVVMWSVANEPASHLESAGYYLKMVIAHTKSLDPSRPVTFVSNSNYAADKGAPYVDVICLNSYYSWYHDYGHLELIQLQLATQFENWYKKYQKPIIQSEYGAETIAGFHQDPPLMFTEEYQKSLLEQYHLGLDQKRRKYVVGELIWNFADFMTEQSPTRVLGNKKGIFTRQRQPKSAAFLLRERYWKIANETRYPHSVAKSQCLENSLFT
Procedure: FIG. 28 illustrates the reversibility of the conjugation of the glucuronide residue to a parental compound. Here, 9AC was analyzed by HPLC before (1.) and after glucuronide conjugation (2.). […] 9AC-G incubated with human enzyme beta-glucuronidase at pH 4.5 to mimic the lysosomal conditions, could regenerate the original parental drug 9AC (5.). (RFU=relative fluorescent units)
In real conditions, it is extrapolated that liposomal glucuronides can be uptake by cells and that the liposomes can release the glucuronide inside lysosomes after degradation as illustrated in FIG. 29. Illustrations of compound regeneration are provided using 2 examples: 9AC-G (linked by self-immolative chemical linker that is removed upon enzyme hydrolysis, FIG. 30) and fluorescein (directly linked to glucuronide residues, FIG. 31). Effective amounts of 9AC were found in the medium of HCC36 and MDA-MB468 human cancer cells after addition of 9AC-G liposomes. On the other hand, when no cells were present, no 9AC was found, meaning that the regeneration of 9AC was dependent on the cells (FIG. 32). […] To further illustrate the parental compound regeneration ability, we incubated HCC36 cells engineered with LDL-R/anti PEG receptors with liposomal fluorescein-di-G (non-fluorescent). At early time, the liposomes (red) were taken up by the cells and started to colocalize with the lysosomes (magenta). […]

Row | Molecule | partition versus corresponding glucuronide [1] | mice survival (MDA-MB-468 tumors) | effect on tumor growth (MDA-MB-468 tumors) | other results
1 | COC(=O)C1OC(Oc2ccc3c(C)cc(=O)oc3c2)C(O)C(O)C1O (stereo not drawn) [4MU-GmE] | increased partition into an organic phase |  |  | 
2 | 9-aminocamptothecin glucuronide methylester [9AC-GmE] | increased partition into an organic phase |  |  | stability of methylester group at basic pH (saponification to 9AC-G) ([2]; basic pH (8.5), 75° C.): easily is hydrolyzed; stability at acidic pH ([2]; pH 5, 75° C.): very stable
3 | 9-aminocamptothecin glucuronide [9AC-G] |  | not | little effect on the tumor growth | initial half-life [3]: 9.3 min; terminal half-life [3]: 38.6 min; effect of human serum albumin on toxicity [4]: toxicity is suppressed; conversion to parental drug by beta-glucuronidase (human beta-glucuronidase): completely converted to 9AC
4 | CC[C@@]1(O)C(=O)OCc2c1cc1n(c2=O)Cc2cc3c(N)cccc3nc2-1 [9AC, 9-aminocamptothecin, reference compound] |  | not | little effect on the tumor growth | 
